The results in this text go back to patent US20080234384A1, “BIARYL AND BIHETEROARYL COMPOUNDS USEFUL IN TREATING IRON DISORDERS” (XENON PHARMACEUTICALS INC., priority 2007, published 2008).

Where a name gives a salt, the structure may show the parent alone.

For data set [1], the target named is T1, DMT1 (Homo sapiens, UniProt P49281).
T1 sequence (P49281 1-568): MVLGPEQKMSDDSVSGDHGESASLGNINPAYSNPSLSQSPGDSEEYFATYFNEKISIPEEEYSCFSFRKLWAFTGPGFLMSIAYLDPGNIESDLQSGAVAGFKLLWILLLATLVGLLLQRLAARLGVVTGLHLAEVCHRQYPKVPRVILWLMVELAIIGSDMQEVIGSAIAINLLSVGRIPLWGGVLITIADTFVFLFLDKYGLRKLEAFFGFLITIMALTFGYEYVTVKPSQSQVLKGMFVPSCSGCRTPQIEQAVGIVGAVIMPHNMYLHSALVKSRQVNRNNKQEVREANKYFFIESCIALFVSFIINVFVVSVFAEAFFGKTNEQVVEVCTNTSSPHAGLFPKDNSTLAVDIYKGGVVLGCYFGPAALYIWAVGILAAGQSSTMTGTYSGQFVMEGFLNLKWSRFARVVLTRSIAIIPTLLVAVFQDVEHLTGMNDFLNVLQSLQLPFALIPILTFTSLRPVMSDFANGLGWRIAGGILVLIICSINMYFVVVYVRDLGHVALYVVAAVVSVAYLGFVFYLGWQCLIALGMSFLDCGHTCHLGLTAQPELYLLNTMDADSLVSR
The data set is described as follows: DMT1 Activity Assay (In Vitro Assay). It counts as cell-based. The settings on record: read-out: IC50 Activity Level. A digest of the protocol: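 Cell-based Fe2+ uptake assay in DMT1-expressing cells (stable overexpressing lines, or endogenous in intestinal cells/tissue, K562 or […]), cells exposed to 55Fe or 59Fe or loaded with calcein before compound addition. Read-out is radiolabelled iron uptake or calcein fluorescence change; electrophysiology in Xenopus oocytes also described.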

As a reminder, the melting point is the temperature of the solid-liquid transition. As usually defined, the IC50 is the concentration needed to halve the response being measured. Molecule `N#CN=C(N)CCCc1ccccc1Sc1ccccc1CCCC(N)=NC#N` [Example 7.2, 2-(6-(3-(cyanoamidino)propyl)phenyl)thio-1-(3-(cyanoamidino)propyl)benzene] registered a melting point of 155 to 157 °C. The 50% inhibitory concentration (IC50) in data set [1] is not below 1000 nM.

`N#CN=C(N)CCc1ccccc1Sc1ccccc1CCC(N)=NC#N` [Example 7, 2-(6-(2-(cyanoamidino)ethyl)phenyl)thio-1-(2-(cyanoamidino)ethyl)benzene] showed a melting point of 188 to 190 °C. In addition, in data set [1], the half-inhibitory concentration (IC50) was not below 1000 nM.

In turn, `N=C(N)SCc1cc(Cl)ccc1Oc1ccc([N+](=O)[O-])cc1CSC(=N)N` (as salt: hydrobromid) [Example 2.20, 2-[2-({[amino(imino)methyl]thio}methyl)-4-chlorophenoxy]-5-nitrobenzyl imidothiocarbamate dihydrobromide] came in with a melting point of more than 220 °C.
